Results published in PMC3164168 (PLoS ONE, 2011).
Entries after “also recorded” stand apart in the source; their conditions may differ. Where two headings read alike, the source gives them in different places.

Key:
[1] = system: pp28-luciferase Towne CMV; assay: microbe, parasite or virus in culture; type: cell-based, human cytomegalovirus; details: for inhibition of late pp28 gene expression (luciferase activity): 72 hpi; for difference in SI versus parent alcohol: 838 vs 606, 832-4 vs 760; for EC50: Human betaherpesvirus 5; for SI (selectivity index, ratio of CC50 to EC50): CC50 in HFF / anti-CMV EC50
Source text: The pp28-luciferase Towne strain was constructed as previously described. Briefly, the recombinant virus, which expresses luciferase under the control of UL99 (pp28) late promoter was generated by insertion of the reporter gene between the US9 and US10 open reading frames (ORFs) in the Towne genome. […] The ganciclovir (GCV)-resistant strain was obtained from a patient with CMV disease. […] This clinical isolate was provided by the clinical virology laboratory with no identifiers that can link to a specific subject. The Johns Hopkins Office of Human Subject Research Institutional Review Board determined that this research qualified for an exemption.
(§1) Human Foreskin Fibroblasts (HFF) passage 12–16 (ATCC, CRL-2088™) were grown in Dulbecco's Modified Eagle Medium (DMEM) containing 10% fetal bovine serum (Gibco, Carlsbad, CA) in a 5% CO2 incubator at 37°C and used for infections with pp28-luciferase Towne CMV or the GCV-resistant strain. One day prior to infection with the pp28-luciferase, 4×10^4 HFF cells were seeded on each well of 24-well tissue culture plates. Infection was carried out at multiplicity of infection of 1 PFU/cell (MOI = 1). Following 90 minute adsorption, media containing virus was removed and replaced by DMEM with 4% fetal bovine serum (Gibco, Carlsbad, CA) containing anti-viral compounds. The concentration of each compound was calculated and adjusted by volume such that it was constant throughout the experiment.
(§2) Infected and treated HFF cells were collected 72 hpi and washed once with PBS. The lysates were assayed for luciferase and cell viability using a Luciferase Assay Kit (Promega, Madison, WI) and CellTiter-Glo Luminescent Cell Viability Assay Kit, respectively, on GloMax®-Multi+ Detection System (Promega) according to manufacturer's instructions.

[2] = system: HFF; assay: CellTiter-Glo Luminescent Cell Viability assay in HFF; type: cell-based
Method: as §1, §2

[3] = as above; type: cell-based; details: human
Method: as §1, §2

[4] = system: 1205Lu (melanoma); assay: MTT cancer cell growth assay, 1205Lu; type: cell-based, human; details: for CC50: read-out: CC50 1205Lu
Method: (§3) HeLa (Human Cervical Adenocarcinoma), HCT116 (Human Colorectal Carcinoma) and 1205Lu (Human Melanoma) cells (all from ATCC) were maintained in DMEM containing 10% fetal bovine serum. 12–16 hours prior to drug treatment, 3×10^3 to 5×10^3 cells were seeded on each well of 96-well tissue culture plates. Drugs were diluted in DMEM containing 10% fetal bovine serum and applied to the cells. 72 hours after drug treatment, 20 µl of MTT solution (5 mg/ml in PBS) was added into each well, followed by shaking the plates at 150 rpm for 5 minutes and an incubation of 4 hours (37°C, 5% CO2). Media was removed, plates dried and each well was resuspended in 100 µl MTT formazan/DMSO. The absorbance of each well was recorded at 560 nm on GloMax®-Multi+ Detection System (Promega).

[5] = system: HCT116 (colorectal carcinoma); assay: MTT cancer cell growth assay, HCT116; type: cell-based, human; details: for CC50: read-out: CC50 HCT116
Method: as §3

[6] = system: GCV-resistant CMV strain (UL97 mutation H520Q); assay: Plaque reduction assay, GCV-resistant CMV strain; type: cell-based, human cytomegalovirus; details: for inhibition of plaque formation, GCV-resistant CMV strain: 0.1 µM, plaques counted 21 days after infection
Source text: The pp28-luciferase Towne strain was constructed as previously described. Briefly, the recombinant virus, which expresses luciferase under the control of UL99 (pp28) late promoter was generated by insertion of the reporter gene between the US9 and US10 open reading frames (ORFs) in the Towne genome. […] We have recently reported that the pp28-luciferase reporter system is sensitive, reproducible and highly correlates with plaque reduction. The ganciclovir (GCV)-resistant strain was obtained from a patient with CMV disease. […] This clinical isolate was provided by the clinical virology laboratory with no identifiers that can link to a specific subject. The Johns Hopkins Office of Human Subject Research Institutional Review Board determined that this research qualified for an exemption.
Human lung fibroblasts (HEL) passage 8–12 (ATCC, CCL-137™) were grown in DMEM containing 10% fetal bovine serum. One day prior to infection, 3×10^5 cells were seeded on each well of 12-well tissue culture plates. GCV-resistant CMV was diluted in DMEM to a desired concentration which gave around 100 plaques per well and added to each well in duplicates. Plates were incubated for 90 minutes with shaking every 10 min; thereafter drugs were added and a methylcellulose overlay applied to each well. After incubation for 21 days, cells were stained with crystal violet and plaques were counted under microscope at 40× magnification.

[7] = system: HeLa (cervical adenocarcinoma); assay: MTT cancer cell growth assay, HeLa; type: cell-based, human; details: for CC50: read-out: CC50 HeLa
Method: as §3

[8] = Homo sapiens, 1205Lu, MTT 72 hr after treatment
[9] = Homo sapiens, HCT-116, MTT 72 hr after treatment
[10] = Homo sapiens, HeLa, MTT 72 hr after treatment
[11] = HFF, 72 h, measured at 1 µM to 100 µM, read-out: CC50

Question: For `CC1CCC2C(C)C(CC(CSc3cccc(COC(=O)N(C)C)c3)CC3OC4OC5(C)CCC6C(C)CCC(C3C)C46OO5)OC3OC4(C)CCC1C32OO4` (centres unmarked) [800-3, Dimer isobu-SPh-3-CH2OC(O)NMe2], which “inhibition of late pp28 gene expression (luciferase activity)” value (“inhibition of late pp28 gene expression” for short) ([1]; 0.1 µM) is on record?
Answer: not active

Question: And the “inhibition of late pp28 gene expression” value ([1]; 0.3 µM)?
Answer: active

Question: With `CC1CCC2C(C)C(CC(CSc3ccc(COC(=O)N(C)C)cc3)CC3OC4OC5(C)CCC6C(C)CCC(C3C)C46OO5)OC3OC4(C)CCC1C32OO4` (centres unmarked) [800-4, Dimer isobu-SPh-4-CH2OC(O)NMe2] as the compound, how does the “inhibition of late pp28 gene expression” value ([1]; 0.1 µM) read?
Answer: not active

Question: And the “inhibition of late pp28 gene expression” value ([1]; 0.3 µM)?
Answer: active

Question: Which “inhibition of late pp28 gene expression” value ([1]; 0.1 µM) does the source give for `CC1CCC2C(C)C(CC(CC3OC4OC5(C)CCC6C(C)CCC(C3C)C46OO5)CS(=O)(=O)c3cccc(COC(=O)N(C)C)c3)OC3OC4(C)CCC1C32OO4` (centres unmarked) [832-3, Dimer isobu-SO2Ph-3-CH2OC(O)NMe2] here?
Answer: not active

Question: And the “inhibition of late pp28 gene expression” value ([1]; 0.3 µM)?
Answer: active

Question: Which results are given for `CC1CCC2C(C)C(CC(CC3OC4OC5(C)CCC6C(C)CCC(C3C)C46OO5)CS(=O)(=O)c3ccc(COC(=O)N(C)C)cc3)OC3OC4(C)CCC1C32OO4` (centres unmarked) [832-4, Dimer isobu-SO2Ph-4-CH2OC(O)NMe2]?
Answer: cellular toxicities at concentrations of complete CMV inhibition [2]: not observed; CC50 at 72 h [3]: 57.5 ± 2.9 µM; CC50 [4, 8]: 0.13 ± 0.007 µM; CC50 [5, 9]: 0.07 ± 0.006 µM; inhibition of plaque formation, GCV-resistant CMV strain [6]: fully inhibited; CC50 [7, 10]: 0.27 ± 0.03 µM; effectiveness in CMV inhibition versus monomer 551 [1]: at least 150 fold; inhibition of late pp28 gene expression (luciferase activity) ([1]; 0.1 µM): highly inhibitory; difference in SI versus parent alcohol [1]: 30 fold; EC50 [1]: 0.07 ± 0.004 µM

Question: With `C[C@H]1[C@@H](CCC(=O)Nc2ccc(F)cc2)O[C@@H]2OC3(C)CC[C@H]4[C@H](C)CC[C@@H]1[C@@]24OO3` [Artefanilide] as the compound, how does the CC50 [2] read?
Answer: 44.9 ± 3.4 µM

Question: What about the CC50 ([4]; MTT 72 hr after treatment) of the same compound?
Answer: > 50 µM

Question: And the CC50 ([5]; MTT 72 hr after treatment)?
Answer: 40 ± 7.9 µM

Question: And the CC50 ([7]; MTT 72 hr after treatment)?
Answer: > 50 µM

Question: Which CC50 at 72 h [3, 11] does the source give for `Nc1nc(O)c2ncn(COC(CO)CO)c2n1` [GCV, Ganciclovir, reference compound] here?
Answer: 247 ± 33.4 µM

Question: And the CC50 [4, 8]?
Answer: > 50 µM

Question: What about the CC50 [5, 9] of the same compound?
Answer: > 50 µM

Question: What about the “plaque formation, GCV-resistant CMV strain” value ([6]; GCV at 5 µM, 21 days) of the same compound?
Answer: obvious resistance

Question: What about the EC50 ([6]; Human betaherpesvirus 5, read-out: EC50 of GCV for the GCV-resistant strain) of the same compound?
Answer: 7.6 µM

Question: What about the CC50 [7, 10] of the same compound?
Answer: > 50 µM

Question: And the “inhibition of late pp28 gene expression” value ([1]; 0.1 µM)?
Answer: no inhibition at all

Question: And the “SI (selectivity index, ratio of CC50 to EC50)” value [1]?
Answer: 96±14

Question: What about the EC50 [1] of the same compound?
Answer: 2.7 ± 0.1 µM

Question: What does the source list for `C[C@H]1[C@H](OC(=O)CCC(=O)O)O[C@@H]2O[C@@]3(C)CC[C@H]4[C@H](C)CC[C@@H]1[C@@]24OO3` [artesunate, Artesunate, reference compound]?
Answer: CC50 at 72 h [3, 11]: 71.7 ± 4 µM; CC50 [4, 8]: 42 ± 2.4 µM; CC50 [5, 9]: 11.3 ± 0.6 µM; CC50 [7, 10]: 7.1 ± 0.4 µM; SI (selectivity index, ratio of CC50 to EC50) [1]: 11±0.9; EC50 [1]: 6.6 ± 0.4 µM

Question: For `CC1CCC2C(C)C(CCCS(=O)(=O)c3ccc(COC(=O)N(C)C)cc3)OC3OC4(C)CCC1C32OO4` (centres unmarked) [compound 551, Art-PrSO2Ph-4-CH2OC(O)NMe2], which “inhibition of late pp28 gene expression” value ([1]; 1 µM) is on record?
Answer: did not

Question: With `CC1CCC2C(C)C(CC(CO)CC3OC4OC5(C)CCC6C(C)CCC(C3C)C46OO5)OC3OC4(C)CCC1C32OO4` (centres unmarked) [compound 606, Dimer isobu-OH] as the compound, how does the CC50 at 72 h [3] read?
Answer: 48.1 ± 2.6 µM

Question: What about the CC50 [4, 8] of the same compound?
Answer: 4.9 ± 0.04 µM

Question: And the CC50 [5, 9]?
Answer: 0.1 ± 0.001 µM

Question: What about the CC50 [7, 10] of the same compound?
Answer: 1.06 ± 0.2 µM

Question: And the “SI (selectivity index, ratio of CC50 to EC50)” value [1]?
Answer: 292±21

Question: And the EC50 [1]?
Answer: 0.16 ± 0.008 µM

Question: Which CC50 at 72 h [3] does the source give for `CC1CCC2C(C)C(CC(CC3OC4OC5(C)CCC6C(C)CCC(C3C)C46OO5)CS(=O)(=O)c3ccc(CO)cc3)OC3OC4(C)CCC1C32OO4` (centres unmarked) [compound 760, Dimer isobu-SO2Ph-4-CH2OH] here?
Answer: 4.9 ± 0.2 µM

Question: And the CC50 [4, 8]?
Answer: 0.1 ± 0.006 µM

Question: What about the CC50 [5, 9] of the same compound?
Answer: 0.07 ± 0.005 µM

Question: And the CC50 [7, 10]?
Answer: 0.56 ± 0.18 µM

Question: What about the “SI (selectivity index, ratio of CC50 to EC50)” value [1] of the same compound?
Answer: 34.5±2

Question: And the EC50 [1]?
Answer: 0.14 ± 0.008 µM

Question: Which “cellular toxicities at concentrations of complete CMV inhibition” value ([2]; HFF) does the source give for `CC1CCC2C(C)C(CC(COP(=O)(Oc3ccccc3)Oc3ccccc3)CC3OC4OC5(C)CCC6C(C)CCC(C3C)C46OO5)OC3OC4(C)CCC1C32OO4` (centres unmarked) [compound 838, Dimer isobu-OP(O)(OPh)2] here?
Answer: not observed

Question: What about the CC50 at 72 h [3, 11] of the same compound?
Answer: 55.8 ± 2.8 µM

Question: And the “potency in inhibiting growth versus artesunate, 1205Lu” value [4]?
Answer: at least 200 fold

Question: What about the CC50 ([4]; Homo sapiens, 1205Lu, 72 h) of the same compound?
Answer: 0.06 ± 0.002 µM

Question: And the “potency in inhibiting growth versus artesunate, HCT116” value [5]?
Answer: at least 200 fold

Question: And the CC50 ([5]; Homo sapiens, HCT-116, 72 h)?
Answer: 0.04 ± 0.005 µM

Question: What about the “inhibition of plaque formation, GCV-resistant CMV strain” value [6] of the same compound?
Answer: fully inhibited; also recorded: highly active

Question: What about the “potency in inhibiting growth versus artesunate, HeLa” value [7] of the same compound?
Answer: 37 fold

Question: What about the CC50 ([7]; Homo sapiens, HeLa, 72 h) of the same compound?
Answer: 0.19 ± 0.08 µM

Question: What about the SI versus artesunate [1] of the same compound?
Answer: 134 fold

Question: And the “anti-CMV potency versus artesunate (using EC50 values)” value [1]?
Answer: 165 fold

Question: And the “inhibition of late pp28 gene expression” value ([1]; 0.1 µM)?
Answer: highly inhibitory

Question: What about the “difference in SI versus parent alcohol” value [1] of the same compound?
Answer: 5 fold

Question: What about the EC50 [1] of the same compound?
Answer: 0.04 ± 0.003 µM
